Measurements reported in US6891062B2, “Pharmaceutical composition for treatment of diseases associated with decrease in bone mass” (Ono Pharmaceutical Co., Ltd., priority 1999, dated 2005).

Test system: Beagle/CSK strain dogs
Assay: Promoting action on bone formation: determination of bone area of femur
Assay type: in vivo, dog
Conditions: for bone area: dog femur, 4 weeks
Excerpt: Beagle/CSK strain dogs of 6-month old were used (n=3 to 6 per group). Into a physical saline solution, each (11 α, 15 α, 13E)-9-oxo-11,15-dihydroxy-16-(3-methoxymethylphenyl)-17,18,19,20-tetranor-5-t hiaprost-13-enoic acid methyl ester (methyl ester of a compound of the formula (IE)) α-cyclodextrin clathrate (containing rate of an active ingredient in α-cyclodextrin clathrate form is 25% w/w), (11 α, 15 α, 13E)-9-oxo-11,15-dihydroxy-16-(3-methoxymethylphenyl)-17,18,19,20-tetranor-3,7-dithiaprost-13-enoic acid (a compound of the formula (IF)), (9β, 11 α, 15 α, 5Z, 13E)-9-chloro-11,15-dihydroxy-16-(3-ethoxymethylphenyl)-17,18,19,20-tetranorpro st-5,13-dienoic acid (a compound of the formula (IG)), (11 α, 15 α, 13E)-9-oxo-11,15-dihydroxy-16-(3-methoxymethylphenyl)-17,18,19,20-tetranorpro st-13-enoic acid (methyl ester of a compound of the formula (IH)), and (11 α, 15 α, 5Z, 13E)-9-oxo-11,15-dihydroxy-16-(3-ethoxymethylphenyl)-17,18,19,20-tetranorprost-5,13-dienoic acid (a compound of the formula (IJ)) was dissolved, and administered continuously to each animal at the effective doses of 2, 5, 10 and 25 μg/kg/day, for 24 hours per day during 4 weeks. Each test solution was administered into femoral vein through holding-catheter at the rate of 0.2 ml/kg/hour. An equal volume of physical saline solution was administered into an animal of the control group. After termination of administration, each animal was sacrificed to carry out autopsy. The separated femur was fixed with 10% buffered formalin solution and then was cut into a round slice with the width of 10 mm vertically to longitudinal axis at the 25 mm central side from trochlea sulcus. Pictures of bone surface near side of epiphysis were taken with camera connected to the computer from the constant distance, and then the resulted digital image was analyzed to determine bone area.

[1] = 5 μg/kg/day continuous into femoral vein

SMILES | bone area [1] | bone area (10 μg/kg/day continuous into femoral vein) | bone area (25 μg/kg/day continuous into femoral vein) | increase of bone area compared with Untreated Group (dog, 25 μg/kg/day)
COCc1cccc(C[C@H](O)/C=C/[C@H]2[C@H](O)CC(=O)[C@@H]2SCCCSCC(=O)O)c1 [Invention compound (IF), (11 α, 15 α, 13E)-9-oxo-11,15-dihydroxy-16-(3-methoxymethylphenyl)-17,18,19,20-tetranor-3,7-dithiaprost-13-enoic acid] | 365.29 ± 73.63 mm^2 | – | – | –
CCOCc1cccc(C[C@H](O)/C=C/[C@@H]2[C@@H](C/C=C\CCCC(=O)O)[C@H](Cl)C[C@H]2O)c1 [Invention compound (IG), (9β, 11 α, 15 α, 5Z, 13E)-9-chloro-11,15-dihydroxy-16-(3-ethoxymethylphenyl)-17,18,19,20-tetranorpro st-5,13-dienoic acid] | – | 140.10 ± 28.08 mm^2 | 289.38 ± 120.50 mm^2 | 4.2 fold
COCc1cccc(C[C@H](O)/C=C/[C@H]2[C@H](O)CC(=O)[C@@H]2CCCCCCC(=O)O)c1 [Invention compound (IH), (11 α, 15 α, 13E)-9-oxo-11,15-dihydroxy-16-(3-methoxymethylphenyl)-17,18,19,20-tetranorpro st-13-enoic acid] | 362.99 ± 89.56 mm^2 | – | – | –
CCOCc1cccc(C[C@H](O)/C=C/[C@H]2[C@H](O)CC(=O)[C@@H]2C/C=C\CCCC(=O)O)c1 [Invention compound (IJ), (11 α, 15 α, 5Z, 13E)-9-oxo-11,15-dihydroxy-16-(3-ethoxymethylphenyl)-17,18,19,20-tetranorprost-5,13-dienoic acid] | 193.23 ± 11.32 mm^2 | – | – | –
